Assay results published in US12365674B2, “Inhibitors of histone deacetylase useful for the treatment or prevention of HIV infection” (Merck Sharp & Dohme LLC, priority 2019, dated 2025).
Like-named read-outs stand apart in the source and are kept apart here.

Tested on: KARN cells (Jurkat 2C4)
Experiment: KARN assay (luciferase induction in latently HIV-infected Jurkat 2C4 cells)
Type: cell-based
Settings: ~20 hr, luciferase induction relative to 2 μM SAHA (100%)
Procedure: KARN cells (Jurkat 2C4) were licensed from the laboratory of Dr. John Karn, Case Western Reserve University, School of Medicine. The details regarding this cell line are published (Pearson, R., Kin, Y. K., Hokello, J., Lassen, K., Friedman, J., Tyagi, M., Karn, J., 2008, J. Virol. 82:12291-12303). The cells were grown in a T175 flask (Thermo Fisher, catalog number 159910) in RPMI 1640 containing L-glutamine and phenol red (Life Technologies, catalog number 11875-085), 5% heat inactivated fetal bovine serum (FBS; Life Technologies, catalog number 10100-147) and 100 μg/ml Penicillin-Streptomycin (Life Technologies, catalog number 15140-122) at 37° C. An atmosphere of 5% CO2 and 90% humidity was used for all culture work. Cells were split and reseeded into T175 flasks at a density of 0.2×10^6 cells/ml, in 40 ml of media, every 3-4 days.
Day 1: After the 3-4 day growth period, the cells were transferred from the T175 flask to a 50 ml conical tube and gently pelleted at 1000 rpm for 5 minutes. The supernatant was removed and the cells gently resuspended in assay media RPMI 1640 medium containing L-glutamine but without Phenol Red (Life Technologies, catalog number 11835-030), 5% FBS and 100 μg/ml Penicillin-Streptomycin, and then reseeded such that the original flask is now divided into two T175 flasks. These flasks were returned to the incubator.
Day 2: Cell Preparation: The next day, the cells were transferred from each T175 flask to an individual 50 ml conical tube and gently pelleted at 1000 rpm for 5 minutes. The cells were gently resuspended in assay media (30 ml) and pelleted again. The cell pellets were each resuspended in 30 ml of RPMI 1640 medium containing L-glutamine but without Phenol Red, 100 μg/ml Penicillin-Streptomycin and containing either 0.1% or 5% normal human serum (NHS; Biospecialty, Colmar, PA, catalog number 115-00 Anticoagulant free). The cells were counted using the ViCell (Beckman Coulter, Brea, CA) and diluted as necessary. A Multidrop (Combi, Thermo Scientific, Waltham, MA) with a sterile head was used to seed the cells into the wells of a 384-well solid black plate with lid (Perkin Elmer, Waltham, MA, catalog number 6007660) at 4000 cells/30 μl/well for the 5% NHS assay media and 6000 cells/30 μl/well for 0.1% NHS assay. The plates were covered and returned to the incubator prior to compound addition.
Compound Preparation: Solutions of control inhibitor suberoylanilide hydroxamic acid (SAHA; Sigma, catalog number SML0061) and test compounds in 100% DMSO were titrated into 384-well polypropylene plates (Labcyte, San Jose, CA, catalog number P-05525) using a 20-point dose response and 2-fold dilutions. The reference compounds, DMSO and SAHA were then added to the compound plate. Using the Access system (Labcyte), 120 nl of these inhibitor and control solutions were added to the individual wells of the plates containing the cells, and the plates were then returned to the incubator for ˜20 hr (range from 18-24 hr). The final high concentration for SAHA and the test compounds in the assays was 40 μM. The final DMSO concentration in all wells was 0.4%. The minimal induction reference compound used was DMSO and the maximal induction reference compound used was SAHA (2 μM final concentration in the assay).
Day 3: The luciferase detection reagent was prepared by transferring the contents of one bottle of Steady-Glo buffer to one bottle of Steady-Glo substrate (Steady-Glo Luciferase Assay System, Promega, Madison, […], catalog number E2520), followed by gently mixing until the substrate was thoroughly dissolved and the solution was equilibrated to room temperature. The cell culture assay plates were removed from the incubator and brought to room temperature (15 min). The Steady-Glo Reagent was added to the plates (30 μl/well), which were then covered with a black lid and incubated for 10 minutes at room temperature. […]

[1] = 0.1% normal human serum, 6000 cells/well, read-out: Karn 0.1% NHS
[2] = 5% normal human serum, 4000 cells/well, read-out: Karn 5% NHS

Structure (SMILES) | EC50 [1] | EC50 [2]
COc1nc2ccccc2cc1-c1cnc([C@@H](N)COCCCC(=O)c2ncco2)[nH]1 [Compound 1, (R)-4-(2-amino-2-(5-(2-methoxyquinolin-3-yl)-1H-imidazol-2-yl)ethoxy)-1-(oxazol-2-yl)butan-1-one] | 11700 nM | –
CCC(=O)CCCOC[C@H](NC(=O)C12CCN(CC1)CC2)c1ncc(-c2cc3ccccc3nc2OC)[nH]1 [Compound 6, N-{(1R)-1-[5-(2-methoxyquinolin-3-yl)-1H-imidazol-2-yl]-2-[(4-oxohexyl)oxy]ethyl}-1-azabicyclo[2.2.2]octane-4-carboxamide] | 8970 nM | 14500 nM
CCC(=O)CCCOC[C@H](NC(=O)[C@H]1CC12CCN(CC)CC2)c1ncc(-c2cc3ccccc3nc2OC)[nH]1 [Compound 7, (1S)-6-ethyl-N-{(1R)-1-[5-(2-methoxyquinolin-3-yl)-1H-imidazol-2-yl]-2-[(4-oxohexyl)oxy]ethyl}-6-azaspiro[2.5]octane-1-carboxamide] | 2350 nM | 3500 nM
CNC(=O)C(=O)CCCOC[C@H](NC(=O)c1cncs1)c1ncc(-c2cc3ccccc3nc2OC)[nH]1 [Compound 8, N-[(1R)-1-[5-(2-methoxyquinolin-3-yl)-1H-imidazol-2-yl]-2-{[5-(methylamino)-4,5-dioxopentyl]oxy}ethyl]-1,3-thiazole-5-carboxamide] | 80.2 nM | 408 nM
CNC(=O)C(=O)CCCOC[C@H](NC(=O)C12CCN(CC1)CC2)c1ncc(-c2cc3ccccc3nc2OC)[nH]1 [Compound 9, N-[(1R)-1-[5-(2-methoxyquinolin-3-yl)-1H-imidazol-2-yl]-2-{[5-(methylamino)-4,5-dioxopentyl]oxy}ethyl]-1-azabicyclo[2.2.2]octane-4-carboxamide] | 232 nM | 466 nM
COc1nc2ccccc2cc1-c1cnc([C@H](COCCCC(=O)c2ncco2)NC(=O)c2cncs2)[nH]1 [Compound 10, N-{(1R)-1-[5-(2-methoxyquinolin-3-yl)-1H-imidazol-2-yl]-2-[4-(1,3-oxazol-2-yl)-4-oxobutoxy]ethyl}-1,3-thiazole-5-carboxamide] | 295 nM | 1500 nM
COc1nc2ccccc2cc1-c1cnc([C@H](COCCCC(=O)c2ncco2)NC(=O)[C@H]2CC23CCN(C)CC3)[nH]1 [Compound 11, (1S)-N-{(1R)-1-[5-(2-methoxyquinolin-3-yl)-1H-imidazol-2-yl]-2-[4-(1,3-oxazol-2-yl)-4-oxobutoxy]ethyl}-6-methyl-6-azaspiro[2.5]octane-1-carboxamide] | 59.8 nM | 218 nM
COc1nc2ccccc2cc1-c1cnc([C@H](COCCCC(=O)c2ncco2)NC(=O)C23CCN(CC2)CC3)[nH]1 [Compound 12, N-{(1R)-1-[5-(2-methoxyquinolin-3-yl)-1H-imidazol-2-yl]-2-[4-(1,3-oxazol-2-yl)-4-oxobutoxy]ethyl}-1-azabicyclo[2.2.2]octane-4-carboxamide] | 252 nM | 562 nM
COc1nc2ccccc2cc1-c1cnc([C@H](COCCCC(=O)c2ncco2)NC(=O)CN(C)C)[nH]1 [Compound 13, N-{(1R)-1-[5-(2-methoxyquinolin-3-yl)-1H-imidazol-2-yl]-2-[4-(1,3-oxazol-2-yl)-4-oxobutoxy]ethyl}-N~2~,N~2~- dimethylglycinamide] | 424 nM | 854 nM
COc1nc2ccccc2cc1-c1cnc([C@H](COCCCC(=O)c2ccon2)NC(=O)CN(C)C)[nH]1 [Compound 14, N-{(1R)-2-(4-isoxazol-3-yl-4-oxobutoxy)-1-[5-(2-methoxyquinolin-3-yl)-1H-imidazol-2-yl]ethyl}-N~2~,N~2~- dimethylglycinamide] | 83.8 nM | 252 nM
CN1CC(C(=O)N[C@@H](COCCCC(=O)c2ccon2)c2ncc(-c3ccccc3F)[nH]2)C1 [Compound 15, N-[(1R)-1-[5-(2-fluorophenyl)-1H-imidazol-2-yl]-2-(4-isoxazol-3-yl-4-oxobutoxy)ethyl]-1-methylazetidine-3-carboxamide] | 539 nM | 548 nM
CN1CC(C(=O)N[C@@H](COCCCC(=O)c2ccon2)c2[nH]c(-c3ccc(F)cc3)nc2Cl)C1 [Compound 16, N-[(1R)-1-[4-chloro-2-(4-fluorophenyl)-1H-imidazol-5-yl]-2-(4-isoxazol-3-yl-4-oxobutoxy)ethyl]-1-methylazetidine-3-carboxamide] | 979 nM | 1100 nM
CN(C)CC(=O)N[C@@H](COCCCC(=O)c1ccon1)c1[nH]c(-c2ccc(F)cc2)nc1Cl [Compound 17, N-[(1R)-1-[4-chloro-2-(4-fluorophenyl)-1H-imidazol-5-yl]-2-(4-isoxazol-3-yl-4-oxobutoxy)ethyl]-N~2~,N~2~- dimethylglycinamide] | 1490 nM | 2420 nM
CN1CCC2(CC1)C[C@@H]2C(=O)N[C@@H](COCCCC(=O)c1ccon1)c1[nH]c(-c2ccc(F)cc2)nc1Cl [Compound 18, (1S)-N-[(1R)-1-[4-chloro-2-(4-fluorophenyl)-1H-imidazol-5-yl]-2-(4-isoxazol-3-yl-4-oxobutoxy)ethyl]-6-methyl-6-azaspiro[2.5]octane-1-carboxamide] | 77.7 nM | 109 nM
COc1cc2nc(C)ccc2cc1-c1cnc([C@H](COCCCC(=O)c2cc(C)on2)NC(=O)C2CN(C)C2)[nH]1 [Compound 19, N-{(1R)-1-[5-(7-methoxy-2-methylquinolin-6-yl)-1H-imidazol-2-yl]-2-[4-(5-methylisoxazol-3-yl)-4-oxobutoxy]ethyl}-1-methylazetidine-3-carboxamide] | 374 nM | 449 nM
COc1cc2nc(C)ccc2cc1-c1cnc([C@H](COCCCC(=O)c2cc(C)on2)NC(=O)[C@H]2CC23CCN(C)CC3)[nH]1 [Compound 20, (1S)-N-{(1R)-1-[5-(7-methoxy-2-methylquinolin-6-yl)-1H-imidazol-2-yl]-2-[4-(5-methylisoxazol-3-yl)-4-oxobutoxy]ethyl}-6-methyl-6-azaspiro[2.5]octane-1-carboxamide] | 40.5 nM | 55.1 nM
Cc1ccc2cc(-c3cnc([C@H](CSCCCC(=O)c4ncco4)NC(=O)[C@H]4CC45CCN(C)CC5)[nH]3)ccc2n1 [Compound 21, (1S)-6-methyl-N-[(1R)-1-[5-(2-methylquinolin-6-yl)-1H-imidazol-2-yl]-2-{[4-(1,3-oxazol-2-yl)-4-oxobutyl]sulfanyl}ethyl]-6-azaspiro[2.5]octane-1-carboxamide] | 60.7 nM | 64.4 nM
